The values below come from ChEMBL document CHEMBL1201862, “PubChem BioAssay data set” (2004).

Common to all, as to assay: NCI-60 cell line screen, 48 h
For test [1], the system named is OVCAR-4.
Test [2] deals with SNB-19.
In test [3] the test system is MCF7.
In test [4] the test system is IGROV-1.
Test [5] relates to NCI-H522.
Test [6] has as its system 786-0.
Test [7] deals with COLO 205.
The subject of test [8] is T47D.
In test [9] the test system is HOP-92.
In test [10] the test system is HOP-62.
The test system of test [11] is SK-OV-3.
The subject of test [12] is RPMI-8226.
For test [13], the system named is Malme-3M.
Test [14] concerns KM12.
Test [15] relates to SF-539.
For test [16], the system named is NCI-H226.
The subject of test [17] is EKVX.
In test [18] the test system is OVCAR-5.
Test [19] deals with Hs-578T.

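Cultured in 96-well plates, cells were exposed to test compound for 48 hours across five concentrations. Here, GI50 denotes the concentration required for 50% inhibition of growth.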 Active and inactive are the calls of the source. Rule as the data show it: active = GI50 up to about 1.1 µM and inactive = higher. Bounds are passed on as bounds.

In the case of `CC12CCCC(O)C1CCC1=CC3(CCC12)SCCS3` (stereo unspecified), the GI50 in test [1], in test [2], in [3], in test [4], in [5] and in test [6] was > 10 µM (inactive) in each case. Further, the GI50 in test [7], in test [8], in [9], in [10], in test [11] and in test [12] was > 10 µM (inactive) each time. Besides, the GI50 in [13] and in test [14] was > 10 µM (inactive) in each case.

For the compound `CC(=O)O[C@H]1C[C@]2(O)[C@@H]3CC[C@@H]4C[C@@H](O)CC[C@]4(C)[C@H]3CC[C@]2(C)[C@H]1C1=CC(=O)OC1`, the GI50 in [1] was 0.0362 µM (active); in test [2], 0.381 µM (active); in test [4], 0.103 µM (active); in test [15], 0.0299 µM (active); in test [5] it was 0.0251 µM (active); in test [6] it was 0.0455 µM (active). Also, the GI50 in test [7] is 0.236 µM (active); in test [8], 0.222 µM (active); in [16], 0.288 µM (active); in test [9], 0.192 µM (active); in test [10], 0.0493 µM (active); in test [11], 0.214 µM (active). Moreover, the GI50 was 0.0982 µM (active) in test [12]; 0.0458 µM (active) in test [17]; 0.182 µM (active) in [18]; 0.036 µM (active) in test [13]; 0.398 µM (active) in test [14]; 0.0675 µM (active) in test [19].

With `COc1ccc(-c2c(C#N)c(N)nc(S)c2C#N)cc1`, the GI50 in [1] was > 100 µM (inactive); in test [2], 57.7 µM (inactive); in test [3], 39.2 µM (inactive); in test [4], 24.7 µM (inactive); in test [15], 38.9 µM (inactive); in test [5], 20.5 µM (inactive). Besides, the GI50 is 21.1 µM (inactive) in test [6]; 30.1 µM (inactive) in test [7]; 21.1 µM (inactive) in test [16]; 40.6 µM (inactive) in [9]; 55.1 µM (inactive) in test [10]; 21.5 µM (inactive) in test [12]. Besides, the GI50 in [17] was 36.1 µM (inactive); in test [18] it was > 100 µM (inactive); in test [13] it was 29.9 µM (inactive); in test [14], 41.8 µM (inactive); in [19], 19.1 µM (inactive).

For the compound `COc1ccc([C@@]23OC[C@@H]4[C@@H](OC[C@@H]42)c2cc(OC)c(OC)cc23)cc1OC`, the GI50 in [1], in [2], in test [3], in test [4], in test [15] and in test [5] was > 100 µM (inactive) each time. In addition, the GI50 in [6], in [7], in test [8], in test [16], in [10] and in [11] was > 100 µM (inactive) in each case. The GI50 in test [12], in test [17], in test [18], in test [13] and in [14] was > 100 µM (inactive) throughout.

For `Cn1c(=O)c2c(nc3n2CCC(=O)N3CCCCl)n(C)c1=O`, the GI50 in test [1], in test [2], in test [4], in [6], in test [7] and in test [8] was > 100 µM (inactive) throughout. Besides, the GI50 in [16], in test [9], in test [10], in test [11], in test [12] and in [17] was > 100 µM (inactive) in each case. In addition, the GI50 in test [18], in [14] and in test [19] was > 100 µM (inactive) each time.

Turning to `O=Cc1cc(C(=O)OCc2ccccc2)n(S(=O)(=O)c2ccccc2)c1`, the GI50 in test [1] was 43.5 µM (inactive); in test [2] it was 29.2 µM (inactive); in test [3], 11.7 µM (inactive); in [4], 25.9 µM (inactive); in test [15] it was 12.7 µM (inactive); in test [5] it was 40.4 µM (inactive). Further, the GI50 in test [6] is 30.7 µM (inactive); in [7], 26.1 µM (inactive); in test [8], 30.5 µM (inactive); in test [10], 13.2 µM (inactive); in test [11], 21.6 µM (inactive); in [17], 23.3 µM (inactive). The GI50 in test [18] was 18.6 µM (inactive); in test [13], 30.5 µM (inactive); in test [14], 13.4 µM (inactive); in [19], 15.8 µM (inactive).

Take `O=C1c2ccccc2/C=C\C(c2ccccc2)=N/N1c1ccccc1Cl`: the GI50 in test [1] is 22.4 µM (inactive); in test [2] it was 19.1 µM (inactive); in test [3], 21.5 µM (inactive); in test [4], 29.4 µM (inactive); in test [15] it was 35.7 µM (inactive); in [5], 12.2 µM (inactive). The GI50 in test [6] is 29.2 µM (inactive); in test [7], > 10 µM (inactive); in test [16], 46.8 µM (inactive); in test [9], 26.5 µM (inactive); in [10], 23.2 µM (inactive); in test [12] it was 23.7 µM (inactive). Further, the GI50 in [17] is 22.5 µM (inactive); in test [18], 72.3 µM (inactive); in test [13], 23.3 µM (inactive); in [14] it was 11.6 µM (inactive); in test [19] it was 34.5 µM (inactive).

With `O=C1C(C(O)(C(F)(F)F)C(F)(F)F)CCC1C(O)(C(F)(F)F)C(F)(F)F` (stereo unspecified), the GI50 in test [1] was 1.18 µM (inactive); in test [2], 17.9 µM (inactive); in test [3], 0.174 µM (active); in test [4], 5.48 µM (inactive); in test [15], 6.82 µM (inactive); in test [5] it was 1.29 µM (inactive). Besides, the GI50 was 3.87 µM (inactive) in test [6]; 0.0481 µM (active) in test [7]; 0.33 µM (active) in test [16]; < 0.01 µM (active) in test [9]; 0.569 µM (active) in [10]; 23 µM (inactive) in test [11]. For the same compound, the GI50 in test [12] was 0.142 µM (active); in [17] it was 8.13 µM (inactive); in test [18], 9.98 µM (inactive); in test [13] it was 1.06 µM (active); in test [14], 0.946 µM (active); in test [19], 1.37 µM (inactive).

As to `C1CSCCSS[C@@H]2CCCCC2SC1` (stereo partly specified), the GI50 in test [1], in test [2], in [3], in test [4], in test [15] and in test [5] was > 100 µM (inactive) each time. Besides, the GI50 is > 100 µM (inactive) in [6]; > 100 µM (inactive) in test [7]; > 100 µM (inactive) in [8]; 29.2 µM (inactive) in [9]; > 100 µM (inactive) in test [10]; > 100 µM (inactive) in test [11]. Moreover, the GI50 in [17], in test [18] and in [14] was > 100 µM (inactive) in each case.

As for `C[Si](C)(C)c1ccc(-c2c3ccc(-c4cc(Br)cc(Br)c4)nc3nc3nc(-c4cc(Br)cc(Br)c4)ccc23)cc1`, the GI50 in [1], in test [2], in test [3], in test [5], in test [6] and in [7] was > 100 µM (inactive) each time. The GI50 in test [8], in test [16], in test [9], in test [10], in test [11] and in test [12] was > 100 µM (inactive) throughout. For the same compound, the GI50 in test [17], in test [18], in [13] and in [14] was > 100 µM (inactive) in each case.

As to `N#CC(=N)c1ncn(CCO)c1NC(=O)C(F)(F)F`, the GI50 in test [1], in test [2], in test [4], in [15], in test [5] and in test [6] was > 100 µM (inactive) each time. In addition, the GI50 in test [7], in [8], in [16], in test [10], in test [11] and in test [12] was > 100 µM (inactive) each time. The GI50 in test [17], in [18], in test [13], in test [14] and in test [19] was > 100 µM (inactive) in each case.

Regarding `C/C=C1/CC(C(=O)OC)N(C(=O)OCc2ccccc2)C1=S` (stereo unspecified), the GI50 in test [1], in test [2], in test [3], in test [4], in test [5] and in [6] was > 100 µM (inactive) each time. The GI50 in test [7] is > 100 µM (inactive); in test [9], > 100 µM (inactive); in test [10], > 100 µM (inactive); in [11] it was > 100 µM (inactive); in [12], > 100 µM (inactive); in [17] it was 84.3 µM (inactive). Also, the GI50 in [18], in [13], in test [14] and in test [19] was > 100 µM (inactive) in each case.
